Type in all cases: binding
Holding throughout (conditions): Compound Concentration 10 µM

Test [1] deals with T1, panel of 442 kinases (Homo sapiens, UniProt P42684).
T1 construct: purchased KINOMEscan
An excerpt:
(§1) We assessed the selectivity of members of this scaffold using the KINOMEscan methodology across a near comprehensive panel of 442 kinases [[18,27]].

Test [2] has as its target T2, panel of 442 kinases (Homo sapiens, UniProt Q5VT25).
T2 construct: purchased KINOMEscan
Excerpt: as §1

Test [3] concerns the target T3, panel of 442 kinases (Homo sapiens, UniProt Q6XUX3).
T3 construct: purchased KINOMEscan
T3 sequence (Q6XUX3 1-929): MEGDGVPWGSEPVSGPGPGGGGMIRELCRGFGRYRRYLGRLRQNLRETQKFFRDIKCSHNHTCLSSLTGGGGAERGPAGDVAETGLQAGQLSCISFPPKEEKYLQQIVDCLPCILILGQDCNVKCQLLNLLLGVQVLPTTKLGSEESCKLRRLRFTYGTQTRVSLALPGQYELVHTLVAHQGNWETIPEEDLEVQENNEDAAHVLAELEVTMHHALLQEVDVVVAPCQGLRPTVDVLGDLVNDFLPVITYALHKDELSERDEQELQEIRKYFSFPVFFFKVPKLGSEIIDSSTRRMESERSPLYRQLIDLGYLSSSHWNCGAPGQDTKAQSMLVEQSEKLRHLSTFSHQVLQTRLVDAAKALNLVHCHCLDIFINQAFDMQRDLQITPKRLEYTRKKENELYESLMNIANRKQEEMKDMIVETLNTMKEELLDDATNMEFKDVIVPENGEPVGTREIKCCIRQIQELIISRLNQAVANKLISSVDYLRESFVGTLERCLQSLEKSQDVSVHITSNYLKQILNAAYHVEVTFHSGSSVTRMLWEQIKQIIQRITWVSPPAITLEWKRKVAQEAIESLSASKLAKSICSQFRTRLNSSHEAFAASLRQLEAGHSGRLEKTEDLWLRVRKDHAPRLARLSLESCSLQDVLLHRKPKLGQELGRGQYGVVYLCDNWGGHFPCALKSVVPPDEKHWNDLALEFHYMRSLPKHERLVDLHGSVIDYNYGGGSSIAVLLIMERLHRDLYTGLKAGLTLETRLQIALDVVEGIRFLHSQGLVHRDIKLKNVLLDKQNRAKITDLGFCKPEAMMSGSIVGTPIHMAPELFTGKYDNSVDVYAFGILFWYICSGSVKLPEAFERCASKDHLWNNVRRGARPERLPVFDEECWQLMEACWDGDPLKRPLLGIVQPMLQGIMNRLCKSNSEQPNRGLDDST
Excerpt: as §1

4 compounds from paper PMC3914206 can be followed below.

T2 sequence (Q5VT25 whole entry): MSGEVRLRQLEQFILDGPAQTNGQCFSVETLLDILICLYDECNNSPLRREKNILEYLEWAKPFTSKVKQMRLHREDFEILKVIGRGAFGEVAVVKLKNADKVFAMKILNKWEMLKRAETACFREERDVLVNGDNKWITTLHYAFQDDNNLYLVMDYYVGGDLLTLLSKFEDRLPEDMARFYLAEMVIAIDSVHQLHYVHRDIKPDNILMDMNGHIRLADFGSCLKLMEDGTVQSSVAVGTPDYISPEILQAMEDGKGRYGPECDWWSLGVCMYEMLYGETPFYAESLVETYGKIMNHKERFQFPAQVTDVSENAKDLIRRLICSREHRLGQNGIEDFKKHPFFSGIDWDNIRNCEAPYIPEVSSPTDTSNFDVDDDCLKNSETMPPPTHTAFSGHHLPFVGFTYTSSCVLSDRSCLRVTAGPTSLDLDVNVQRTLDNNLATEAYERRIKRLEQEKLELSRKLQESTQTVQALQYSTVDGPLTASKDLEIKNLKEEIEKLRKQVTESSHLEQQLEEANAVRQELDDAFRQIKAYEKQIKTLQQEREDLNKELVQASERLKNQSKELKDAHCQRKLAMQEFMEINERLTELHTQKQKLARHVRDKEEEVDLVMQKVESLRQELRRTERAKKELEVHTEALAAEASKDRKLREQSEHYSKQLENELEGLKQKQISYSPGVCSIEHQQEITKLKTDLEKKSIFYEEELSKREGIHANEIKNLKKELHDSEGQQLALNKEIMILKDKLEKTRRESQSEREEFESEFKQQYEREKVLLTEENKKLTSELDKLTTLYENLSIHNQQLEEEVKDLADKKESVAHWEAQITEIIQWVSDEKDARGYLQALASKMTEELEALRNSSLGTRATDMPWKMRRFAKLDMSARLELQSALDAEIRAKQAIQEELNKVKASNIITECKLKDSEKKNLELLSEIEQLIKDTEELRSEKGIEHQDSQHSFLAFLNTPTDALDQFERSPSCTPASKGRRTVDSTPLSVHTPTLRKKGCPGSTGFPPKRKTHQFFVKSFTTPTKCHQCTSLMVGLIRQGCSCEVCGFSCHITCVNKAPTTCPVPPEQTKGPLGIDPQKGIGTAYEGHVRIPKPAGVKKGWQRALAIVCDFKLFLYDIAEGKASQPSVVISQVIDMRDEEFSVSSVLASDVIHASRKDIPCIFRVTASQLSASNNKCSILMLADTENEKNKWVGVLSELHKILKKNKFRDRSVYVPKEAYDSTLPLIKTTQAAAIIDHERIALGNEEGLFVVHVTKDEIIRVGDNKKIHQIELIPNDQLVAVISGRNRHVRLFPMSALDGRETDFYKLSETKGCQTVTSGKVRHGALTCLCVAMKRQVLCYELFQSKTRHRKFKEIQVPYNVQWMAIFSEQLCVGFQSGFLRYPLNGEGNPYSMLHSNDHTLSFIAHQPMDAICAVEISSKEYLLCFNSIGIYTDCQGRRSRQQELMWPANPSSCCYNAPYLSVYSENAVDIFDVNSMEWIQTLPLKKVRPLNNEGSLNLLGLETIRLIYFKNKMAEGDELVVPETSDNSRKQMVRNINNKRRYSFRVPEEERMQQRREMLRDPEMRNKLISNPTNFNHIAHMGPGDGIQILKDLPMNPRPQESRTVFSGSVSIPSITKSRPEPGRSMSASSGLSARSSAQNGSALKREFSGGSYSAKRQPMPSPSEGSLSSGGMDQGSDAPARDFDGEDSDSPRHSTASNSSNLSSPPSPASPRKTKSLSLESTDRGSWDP
T1 sequence (P42684 whole entry): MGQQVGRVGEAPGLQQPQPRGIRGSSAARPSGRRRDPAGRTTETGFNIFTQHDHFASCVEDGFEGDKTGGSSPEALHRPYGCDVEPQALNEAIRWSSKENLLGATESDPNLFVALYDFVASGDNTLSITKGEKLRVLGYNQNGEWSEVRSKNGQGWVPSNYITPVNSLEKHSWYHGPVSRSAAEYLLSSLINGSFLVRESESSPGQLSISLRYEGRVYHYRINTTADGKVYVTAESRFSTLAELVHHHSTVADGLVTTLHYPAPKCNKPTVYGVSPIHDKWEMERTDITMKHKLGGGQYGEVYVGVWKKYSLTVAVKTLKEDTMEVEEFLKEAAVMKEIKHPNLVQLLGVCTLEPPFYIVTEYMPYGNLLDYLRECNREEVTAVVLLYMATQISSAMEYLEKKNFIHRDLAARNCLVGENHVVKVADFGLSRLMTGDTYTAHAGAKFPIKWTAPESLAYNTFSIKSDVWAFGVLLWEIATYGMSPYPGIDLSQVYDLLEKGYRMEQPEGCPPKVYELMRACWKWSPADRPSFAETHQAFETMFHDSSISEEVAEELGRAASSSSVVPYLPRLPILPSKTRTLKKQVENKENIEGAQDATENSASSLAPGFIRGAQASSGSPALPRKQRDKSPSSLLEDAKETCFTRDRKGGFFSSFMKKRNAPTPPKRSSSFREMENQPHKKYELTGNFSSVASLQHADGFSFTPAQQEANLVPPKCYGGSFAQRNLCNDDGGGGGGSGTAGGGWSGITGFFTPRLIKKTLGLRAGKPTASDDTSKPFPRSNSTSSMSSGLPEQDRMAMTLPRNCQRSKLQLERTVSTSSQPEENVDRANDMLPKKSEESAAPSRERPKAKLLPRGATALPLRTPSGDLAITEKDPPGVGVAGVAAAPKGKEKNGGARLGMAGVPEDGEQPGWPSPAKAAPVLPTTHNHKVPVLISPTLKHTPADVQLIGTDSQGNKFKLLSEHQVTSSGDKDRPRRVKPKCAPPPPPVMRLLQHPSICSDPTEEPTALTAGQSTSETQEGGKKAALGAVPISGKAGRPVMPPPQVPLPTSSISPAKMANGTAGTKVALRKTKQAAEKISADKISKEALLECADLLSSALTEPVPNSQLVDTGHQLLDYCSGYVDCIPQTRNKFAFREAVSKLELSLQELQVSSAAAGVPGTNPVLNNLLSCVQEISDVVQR

With `COc1cc(C(=O)N2CCC(N3CCN(C)CC3)CC2)ccc1Nc1ncc2c(n1)N(C1CCCC1)c1ccccc1C(=O)N2C` [Compound 25, 11-cyclopentyl-2-((2-methoxy-4-(4-(4-methylpiperazin-1-yl)piperidine-1-carbonyl)phenyl)amino)-5-methyl-5H-benzo[e]pyrimido[5,4-b][1,4]diazepin-6(11H)-one], in test [1], the “KINOMEscan: ABL2” value is on record as 100. Further, the “KINOMEscan: MRCKA” value in test [2] stood at 100. Moreover, the “KINOMEscan: RIPK5” value in test [3] is on record as 4.9.

For the compound `COc1cc(C(=O)N2CCC(N3CCN(C)CC3)CC2)ccc1Nc1ncc2c(n1)N1CCc3cccc(c31)C(=O)N2C` [Compound 24], the “KINOMEscan: RIPK5” value in test [3] came to 24.

As for `COc1cc(C(=O)N2CCC(N3CCN(C)CC3)CC2)ccc1Nc1ncc2c(n1)N(C)c1ccccc1C(=O)N2C` [15 (LRRK2-IN-1)], the “KINOMEscan: ABL2” value in test [1] came to 97. Further, in test [2], the “KINOMEscan: MRCKA” value is listed as 100. The “KINOMEscan: RIPK5” value in test [3] is reported as 16.

As for `CCOc1cc(C(=O)N2CCC(N3CCN(C)CC3)CC2)ccc1Nc1ncc2c(n1)N(C1CCCC1)c1ccccc1C(=O)N2C` [Compound 26], the “KINOMEscan: ABL2” value in test [1] is recorded as 100. For the same compound, the “KINOMEscan: MRCKA” value in test [2] is given as 100. The “KINOMEscan: RIPK5” value in test [3] is recorded as 16.
